Assay results: the CheMixHub ionic liquid set
± gives the uncertainty stated by the source.

Test: xn = mol fraction of the nth substance listed
Settings: 100 kPa

CCC(=O)[O-].CCOCCn1cc[n+](C)c1 + O
Settings | electrical conductivity [S/m] | viscosity [mPa·s]
288.15 K, x1 = 0.8211 | 0.244 ± 0.02 | 56.95 ± 0.62
288.15 K, x1 = 0.85 | 0.209 ± 0.02 | 62.86 ± 0.75
288.15 K, x1 = 0.8812 | 0.178 ± 0.02 | 69.98 ± 0.97
288.15 K, x1 = 0.9123 | 0.148 ± 0.02 | 77.3 ± 1.3
288.15 K, x1 = 0.9441 | 0.118 ± 0.02 | 85.4 ± 1.6
288.15 K, x1 = 1 | 0.067 ± 0.02 | 96.2 ± 2.1
293.15 K, x1 = 0.8211 | 0.285 ± 0.02 | 43.77 ± 0.57
293.15 K, x1 = 0.85 | 0.255 ± 0.02 | 48.37 ± 0.63
293.15 K, x1 = 0.8812 | 0.228 ± 0.02 | 53.31 ± 0.56
293.15 K, x1 = 0.9123 | 0.202 ± 0.02 | 58.97 ± 0.66
293.15 K, x1 = 0.9441 | 0.177 ± 0.02 | 64.74 ± 0.77
293.15 K, x1 = 1 | 0.132 ± 0.02 | 72.77 ± 0.96
298.15 K, x1 = 0.8211 | 0.332 ± 0.02 | 34.4 ± 0.51
298.15 K, x1 = 0.85 | 0.305 ± 0.02 | 37.68 ± 0.54
298.15 K, x1 = 0.8812 | 0.28 ± 0.02 | 41.51 ± 0.57
298.15 K, x1 = 0.9123 | 0.258 ± 0.02 | 45.4 ± 0.6
298.15 K, x1 = 0.9441 | 0.236 ± 0.02 | 49.8 ± 0.61
298.15 K, x1 = 1 | 0.196 ± 0.02 | 55.65 ± 0.48
303.15 K, x1 = 0.8211 | 0.425 ± 0.02 | 27.21 ± 0.47
303.15 K, x1 = 0.85 | 0.399 ± 0.02 | 29.76 ± 0.49
303.15 K, x1 = 0.8812 | 0.371 ± 0.02 | 32.63 ± 0.51
303.15 K, x1 = 0.9123 | 0.349 ± 0.02 | 35.7 ± 0.53
303.15 K, x1 = 0.9441 | 0.326 ± 0.02 | 39.01 ± 0.54
303.15 K, x1 = 1 | 0.285 ± 0.02 | 43.51 ± 0.52
308.15 K, x1 = 0.8211 | 0.539 ± 0.02 | 22.04 ± 0.45
308.15 K, x1 = 0.85 | 0.507 ± 0.02 | 23.97 ± 0.46
308.15 K, x1 = 0.8812 | 0.478 ± 0.02 | 26.44 ± 0.47
308.15 K, x1 = 0.9123 | 0.451 ± 0.02 | 28.78 ± 0.48
308.15 K, x1 = 0.9441 | 0.425 ± 0.02 | 30.96 ± 0.49
308.15 K, x1 = 1 | 0.378 ± 0.02 | 34.6 ± 0.48
313.15 K, x1 = 0.8211 | 0.647 ± 0.02 | 17.65 ± 0.43
313.15 K, x1 = 0.85 | 0.617 ± 0.02 | 19.48 ± 0.44
313.15 K, x1 = 0.8812 | 0.588 ± 0.02 | 21.34 ± 0.45
313.15 K, x1 = 0.9123 | 0.561 ± 0.02 | 22.96 ± 0.45
313.15 K, x1 = 0.9441 | 0.534 ± 0.02 | 24.58 ± 0.46
313.15 K, x1 = 1 | 0.488 ± 0.02 | 27.45 ± 0.45
318.15 K, x1 = 0.8211 | 0.775 ± 0.02 | 14.34 ± 0.42
318.15 K, x1 = 0.85 | 0.747 ± 0.02 | 15.58 ± 0.43
318.15 K, x1 = 0.8812 | 0.718 ± 0.02 | 17.15 ± 0.43
318.15 K, x1 = 0.9123 | 0.691 ± 0.02 | 18.49 ± 0.43
318.15 K, x1 = 0.9441 | 0.664 ± 0.02 | 19.86 ± 0.44
318.15 K, x1 = 1 | 0.619 ± 0.02 | 22.11 ± 0.44
